According to patent US9199947B2, “Biaryl-propionic acid derivatives and their use as pharmaceuticals” (SANOFI, priority 2013, dated 2015):

These molecules were tested against Recombinant human cathepsin A (Homo sapiens (Human), UniProt P10619) (assay: Cathepsin A inhibitory activity (Bodipy FL-labeled bradykinin substrate, microfluidic capillary electrophoresis)). Details: Cathepsin A inhibitory activity, read-out: CATHA IC50.
Assay type: biochemical
Method: Pharmacological Tests a) Cathepsin a Inhibitory Activity
Recombinant human cathepsin A (residues 29-480, with a C-terminal 10-His tag; R&D Systems, #1049-SE) was proteolytically activated with recombinant human cathepsin L (R&D Systems, #952-CY). Briefly, cathepsin A was incubated at 10 μg/ml with cathepsin L at 1 μg/ml in activation buffer (25 mM 2-(morpholin-4-yl)-ethanesulfonic acid (MES), pH 6.0, containing 5 mM dithiothreitol (DTT)) for 15 min at 37° C.
The activated cathepsin A was diluted in assay buffer (25 mM MES, pH 5.5, containing 5 mM DTT) and mixed with the test compound (dissolved in assay buffer containing (v/v) 3% DMSO) or, in the control experiments, with the vehicle in a multiple assay plate. After incubation for 15 min at room temperature, as substrate then bradykinin carrying an N-terminal® Bodipy FL (4,4-difluoro-5,7-dimethyl-4-bora-3a,4a-diaza-s-indacene-3-propionyl) label (JPT Peptide Technologies GmbH; dissolved in assay buffer) was added to the mixture. The final concentration of cathepsin A was 833 ng/ml and the final concentration of labeled bradykinin 2 μM. After incubation for 15 min at room temperature the reaction was stopped by the addition of stop buffer (130 mM 2-(4-(2-hydroxy-ethyl)-piperazin-1-yl)-ethanesulfonic acid, pH 7.4, containing (v/v) 0.013%° Triton X-100, 0.13% Coating Reagent 3 (Caliper Life Sciences), 6.5% DMSO and 20 μM ebelactone B (Sigma, #E0886)).
Uncleaved substrate and product were then separated by a microfluidic capillary electrophoresis on a LabChip® 3000 Drug Discovery System (12-Sipper-Chip; Caliper Life Sciences) and quantified by determination of the respective peak areas. Substrate turnover was calculated by dividing product peak area by the sum of substrate and product peak areas, and the enzyme activity and the inhibitory effect of the test compound thus quantified.

Sequence of Recombinant human cathepsin A (P10619 29-326): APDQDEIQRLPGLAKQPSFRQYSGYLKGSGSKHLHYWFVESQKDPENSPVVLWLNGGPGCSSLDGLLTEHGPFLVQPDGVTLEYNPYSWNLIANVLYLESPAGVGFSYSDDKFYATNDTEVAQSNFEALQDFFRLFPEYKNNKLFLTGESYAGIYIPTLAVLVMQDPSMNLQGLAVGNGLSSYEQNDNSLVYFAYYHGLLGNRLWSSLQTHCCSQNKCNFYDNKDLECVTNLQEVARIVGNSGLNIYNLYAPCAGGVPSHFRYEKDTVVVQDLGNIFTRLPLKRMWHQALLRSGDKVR
Sequence of Recombinant human cathepsin A (P10619 327-480): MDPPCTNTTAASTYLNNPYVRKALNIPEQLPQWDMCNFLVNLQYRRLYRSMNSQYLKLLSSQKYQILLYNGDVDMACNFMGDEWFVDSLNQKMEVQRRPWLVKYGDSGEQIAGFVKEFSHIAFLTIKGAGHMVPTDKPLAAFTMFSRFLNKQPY

| IC50 | Structure (SMILES) |
| --- | --- |
| 2030 nM | CC(=O)c1ccccc1-c1cc(F)cc(C(CC(=O)O)c2ncco2)c1 (centres unmarked) [compound 136] |
| 1490 nM | O=C(O)CC(c1cc(F)cc(-c2cc(F)ccc2F)c1)c1ncco1 (centres unmarked) [compound 130] |
| 2280 nM | O=C(O)CC(c1cc(F)cc(-c2cccc(OC(F)(F)F)c2)c1)c1ncco1 (centres unmarked) [compound 138] |
| 780 nM | Cc1cnc(C(CC(=O)O)c2cc(F)cc(-c3ccccc3F)c2)s1 (centres unmarked) [compound 122] |
| 649 nM | Cc1cnc(C(CC(=O)O)c2cc(F)cc(-c3cc(F)ccc3F)c2)s1 (centres unmarked) [compound 120] |
| 903 nM | Cc1ccc(F)c(-c2cc(F)cc(C(CC(=O)O)c3ncco3)c2)c1 (centres unmarked) [compound 123] |
| 1230 nM | Cc1cnc(C(CC(=O)O)c2cc(F)cc(-c3ccccc3C(N)=O)c2)s1 (centres unmarked) [compound 127] |
| 437 nM | Cc1ccc(F)c(-c2cc(F)cc(C(CC(=O)O)c3ncc(C)s3)c2)c1 (centres unmarked) [compound 118] |
| 1720 nM | O=C(O)CC(c1cc(F)cc(-c2ccccc2F)c1)c1ncco1 (centres unmarked) [compound 133] |
| 2030 nM | N#Cc1ccccc1-c1cc(F)cc(C(CC(=O)O)c2ncco2)c1 (centres unmarked) [compound 137] |
| 20600 nM | Cc1nnc(C(CC(=O)O)c2cccc(-c3ccncc3)c2)o1 (centres unmarked) [compound 148] |

Same assay, conditions: read-out: CATHA IC50

| IC50 | Structure (SMILES) |
| --- | --- |
| 1060 nM | Cc1cnc(C(CC(=O)O)c2cc(Cl)cc(-c3cccnc3)c2)s1 (centres unmarked) [compound 115] |
| 9260 nM | COc1ccc(-c2cccc(C#N)c2)cc1C(CC(=O)O)c1ncc(C)s1 (centres unmarked) [compound 94] |
| 2810 nM | CC(C)COc1ccc(-c2cccc(C(CC(=O)O)c3nccs3)c2)cc1 (centres unmarked) [compound 36] |
| 8800 nM | COc1ccc(-c2ccc(C#N)cc2)cc1C(CC(=O)O)c1ncc(C)s1 (centres unmarked) [compound 93] |
| 3090 nM | COc1ccc(-c2ccc(C)cc2C)cc1C(CC(=O)O)c1ncc(C)s1 (centres unmarked) [compound 75] |
| 631 nM | Cc1cnc(C(CC(=O)O)c2cccc(-c3ccccc3F)c2)s1 (centres unmarked) [compound 53] |
| 232 nM | Cc1ccc(F)c(-c2cc(Cl)cc(C(CC(=O)O)c3ncc(C)s3)c2)c1 (centres unmarked) [compound 105] |
| 784 nM | Cc1cccc(-c2cccc(C(CC(=O)O)c3nccs3)c2)c1 (centres unmarked) [compound 3] |
| 567 nM | Cc1cnc(C(CC(=O)O)c2cc(Cl)cc(-c3ccccc3C#N)c2)s1 (centres unmarked) [compound 114] |
| 769 nM | Cn1nc(-c2cccc(C(CC(=O)O)c3nccs3)c2)c2ccccc21 (centres unmarked) [compound 18] |
| 1180 nM | COc1cccc(-c2cccc(C(CC(=O)O)c3nccs3)c2)c1 (centres unmarked) [compound 21] |
| 10200 nM | COc1ccc(-c2ccccc2C(F)(F)F)cc1C(CC(=O)O)c1ncc(C)s1 (centres unmarked) [compound 95] |
| 2650 nM | COc1ccc(-c2ccc(F)cc2F)cc1C(CC(=O)O)c1ncc(C)s1 (centres unmarked) [compound 74] |
| 23200 nM | Cc1nnc(C(CC(=O)O)c2cccc(-c3ccncc3)c2)o1 (centres unmarked) [compound 16] |
| 21200 nM | O=C(O)CC(c1cccc(-c2cccnc2)c1)c1nccs1 (centres unmarked) [compound 44] |
| 13600 nM | Cc1cnc(C(CC(=O)O)c2cccc(-c3cncc(C(=O)N4CCOCC4)c3)c2)s1 (centres unmarked) [compound 59] |
| 3200 nM | COc1ccc(C=O)c(-c2cccc(C(CC(=O)O)c3nccs3)c2)c1 (centres unmarked) [compound 37] |
| 3270 nM | COc1ccc(-c2ccc(OC)c(C(CC(=O)O)c3ncc(C)s3)c2)c(F)c1 (centres unmarked) [compound 77] |
| 2430 nM | O=C(O)CC(c1cccc(-c2ccc(OCc3ccccc3)c(F)c2)c1)c1nccs1 (centres unmarked) [compound 33] |
| 2290 nM | O=C(O)CC(c1cccc(-c2ccc(OCC3CC3)cc2)c1)c1nccs1 (centres unmarked) [compound 30] |
| 9540 nM | Cc1cc(-c2cccc(C(CC(=O)O)c3nccs3)c2)n(C)n1 (centres unmarked) [compound 40] |
| 1940 nM | N#CCOc1cccc(-c2cccc(C(CC(=O)O)c3nccs3)c2)c1 (centres unmarked) [compound 27] |
| 2770 nM | O=C(O)CC(c1cccc(-c2cccc(OCc3ccccc3)c2)c1)c1nccs1 (centres unmarked) [compound 35] |
| 2310 nM | CC(C)COc1cc(F)cc(-c2cccc(C(CC(=O)O)c3nccs3)c2)c1 (centres unmarked) [compound 31] |
| 634 nM | Cc1nnc(C(CC(=O)O)c2cccc(-c3cccc(Cl)c3Cl)c2)o1 (centres unmarked) [compound 15] |
| 1230 nM | COc1ccc(-c2cc(Cl)ccc2F)cc1C(CC(=O)O)c1ncc(C)s1 (centres unmarked) [compound 65] |
| 8350 nM | COc1ccc(-c2cccc(C(CC(=O)O)c3nccs3)c2)cn1 (centres unmarked) [compound 39] |

| IC50 | Structure (SMILES) |
| --- | --- |
| 3740 nM | COc1ccc(-c2cccc(Cl)c2)cc1C(CC(=O)O)c1ncc(C)s1 (centres unmarked) [compound 81] |
| 3730 nM | COc1ccc(-c2ccc(F)cc2C)cc1C(CC(=O)O)c1ncc(C)s1 (centres unmarked) [compound 80] |
| 797 nM | Cc1cccc(-c2cccc(C(CC(=O)O)c3nccs3)c2)c1Cl (centres unmarked) [compound 4] |
| 1500 nM | CCOc1cccc(-c2cccc(C(CC(=O)O)c3nccs3)c2)c1 (centres unmarked) [compound 24] |
| 466 nM | COc1cc(F)c(-c2cccc(C(CC(=O)O)c3ncc(C)s3)c2)cc1F (centres unmarked) [compound 52] |
| 18100 nM | COc1ccc(-c2cccc(OC(F)(F)F)c2)cc1C(CC(=O)O)c1ncc(C)s1 (centres unmarked) [compound 96] |
| 6360 nM | COc1ccc(-c2ccc(F)cc2Cl)cc1C(CC(=O)O)c1ncc(C)s1 (centres unmarked) [compound 87] |
| 22600 nM | N#Cc1ccc(-c2cccc(C(CC(=O)O)c3nccs3)c2)cn1 (centres unmarked) [compound 45] |
| 2300 nM | CC(=O)c1ccccc1-c1cccc(C(CC(=O)O)c2ncc(C)s2)c1 (centres unmarked) [compound 55] |
| 404 nM | Cc1cnc(C(CC(=O)O)c2cc(Cl)cc(-c3ccccc3C(N)=O)c2)s1 (centres unmarked) [compound 110] |
| 221 nM | Cc1cnc(C(CC(=O)O)c2cc(Cl)cc(-c3ccccc3OC(F)(F)F)c2)s1 (centres unmarked) [compound 104] |
| 4380 nM | COc1ccc(-c2ccc(C(F)(F)F)cc2)cc1C(CC(=O)O)c1ncc(C)s1 (centres unmarked) [compound 83] |
| 4300 nM | O=C(O)CC(c1cccc(-c2ccc(F)cc2)c1)c1nccs1 (centres unmarked) [compound 14] |
| 7060 nM | Cc1cnc(C(CC(=O)O)c2cccc(-c3ccncc3F)c2)s1 (centres unmarked) [compound 57] |
| 2250 nM | O=C(O)CC(c1cccc(-c2cccc(OC(F)(F)F)c2)c1)c1nccs1 (centres unmarked) [compound 28] |
| 3620 nM | O=C(O)CC(c1cccc(-c2cc(C(F)(F)F)ccc2F)c1)c1nccs1 (centres unmarked) [compound 13] |
| 354 nM | Cc1cnc(C(CC(=O)O)c2cc(Cl)cc(-c3cccc(F)c3F)c2)s1 (centres unmarked) [compound 109] |
| 1390 nM | Nc1ccc(-c2cccc(C(CC(=O)O)c3nccs3)c2)c(F)n1 (centres unmarked) [compound 23] |
| 136 nM | Cc1cnc(C(CC(=O)O)c2cc(Cl)cc(-c3cc(F)ccc3F)c2)s1 (centres unmarked) [compound 101] |
| 1250 nM | COc1ccc(-c2cc(F)ccc2Cl)cc1C(CC(=O)O)c1ncc(C)s1 (centres unmarked) [compound 66] |
| 1670 nM | CCCOc1cccc(-c2cccc(C(CC(=O)O)c3nccs3)c2)c1 (centres unmarked) [compound 26] |
| 1110 nM | CCCOc1ccc(F)c(-c2cccc(C(CC(=O)O)c3nccs3)c2)c1 (centres unmarked) [compound 20] |
| 970 nM | COc1ccc(-c2ccc(C)cc2F)cc1C(CC(=O)O)c1ncc(C)s1 (centres unmarked) [compound 62] |
| 967 nM | O=C(O)CC(c1cccc(-c2cccc(Cl)c2)c1)c1nccs1 (centres unmarked) [compound 5] |
| 1890 nM | CC(C)(C)c1cccc(-c2cccc(C(CC(=O)O)c3nccs3)c2)c1 (centres unmarked) [compound 1] |
| 2420 nM | COc1ccc(-c2cccc(C)c2F)cc1C(CC(=O)O)c1ncc(C)s1 (centres unmarked) [compound 73] |
| 228 nM | Cc1cnc(C(CC(=O)O)c2cccc(-c3cc(Cl)ccc3F)c2)s1 (centres unmarked) [compound 50] |
